According to patent US20250099486A1, “WOUND HEALING MEDICAMENT” (The University of Sheffield, priority 2017, published 2025):

Experiments:
[1] = tested on: full-thickness wounds (20 mm); experiment: Full-thickness excisional rat wound model; assay type: in vivo, male Sprague-Dawley (SD) rats
Description: For in vivo experiments, 20 mm diameter and 1.2 mm thickness circles of hydrogels were prepared. These samples were sterilized using ethanol (70%) solution, air dried and equilibrated in PBS briefly before placing on the wound. For animal trials, male Sprague-Dawley (SD) rats weighing 140-170 g were used in the study. The animals had free access to food and water and were kept in the animal house facility of the Centre of Excellence in Molecular Biology (CEMB), Lahore. All animals were treated according to procedures approved by the Institutional Animal Ethics Committee at CEMB, Lahore, Pakistan. Animals were anesthetized with ketamine (100 mg/kg body weight) and xylazine (10 mg/kg body weight) and then the fur from the dorsal side was removed with a hair trimmer (Dingling professional hair clipper, RF-608, China). The backs of the rats were completely shaved for adhesive tape fixation and dressing. After shaving, the backs were cleaned with ethanol and then they were transferred onto a clean sterilized table and three circular shaped wounds were created by removing skin at three marked areas with the help of surgical scissors (Noorani Surgical Medical Supplies, Pakistan). Immediately followed the excision process, one of these wounds was covered with sterilized, 2-deoxy-D-ribose-loaded (using 70% ethanol) membrane circles and the other was covered with the same material membranes but without any 2-deoxy-D-ribose. Both the implanted membranes were sutured in position using sterile braided silk sutures (Mersilk, diameter 220 microns). The scaffolds were covered with adhesive plaster (Mepore, Sweden), further dressed with cotton gauze and finally secured with white surgical adhesive tape (Nitto, Japan) to prevent damage from self-grooming. One of these wounds was kept open and covered with dressing only (Mepore, Sweden) to serve as a negative control.
Surgical dressings were removed after three days of membrane implantation. On days 0, 3, 9, 11, 14 and 17 post-wounding, the wounds were measured and photographed. The wound areas were quantified using Image j software. By the end of experiments, on day 17, rats were euthanized with an overdose of anaesthesia and tissue sections from Implantation sites of normal, sham, control and 2-deoxy-D-ribose-loaded scaffold treated groups were removed. The samples were fixed in 3.7% paraformaldehyde (Sigma-Aldrich, USA) solution for 24 hours at room temperature. They were dehydrated using various concentrations of ethanol and water from 70% to 100% and paraffin blocks were made.
Sections of 6 μm thick were cut from the paraffin embedded samples with a microtome (Leica TP 1020 Automatic Tissue Processor) and placed on Superfrost® plus slides (Menzel-Gläser, Denmark). Conventional Haematoxylin and Eosin (H&E) staining and Gouldner's trichrome staining was performed (Yar et al., International Journal of Polymeric Materials and Polymeric Biomaterials. 2016) before mounting in DPX mounting medium (Fisher Scientific) with a coverslip.
For immunohistochemistry, 6 μm sections were processed with a mouse/rabbit specific HRP/DAB (ABC) Detection IHC Kit (Abcam). After rehydration, antigen retrieval and protein blocking steps, the sections were incubated with 3 different monoclonal antibodies (rabbit anti-CD34 (Abcam) 1:1000, mouse anti-CD80 (Santa Cruz) 1:100 and mouse anti-CD163 (AbD Serotec) 1:300) for 2 hours diluted in 1% BSA (Sigma-Aldrich). This was followed by 10 min incubation with a secondary biotinylated goat anti-polyvalent antibody (Abcam Detection IHC Kit). After incubation with an avidin and biotinylated horseradish peroxidase, the target proteins were visualized by incubation in peroxidase substrate and DAB chromogen (Abcam Detection IHC Kit). Samples were then counterstained with haematoxylin, dehydrated, and mounted as per H&E protocol. Controls consisted of samples incubated without primary and secondary antibodies, or incubated only with secondary antibodies. […]

[2] = E2 and 2dDR release from PHBV scaffolds in PBS; assay type: physicochemical; conditions: by 7 days
Description: 10% (w/w) PHBV solution loaded was prepared prior to electrospinning. 1 g of PHBV granules (Goodfellow, London, UK) were dissolved in 1 g of methanol (Fisher Scientific, Massachusetts, USA) and 8 g of DCM (Fisher Scientific, Massachusetts, USA) in a fume hood. Four 10% PHBV solutions were prepared prior to addition of substances. Finally, 25 mg E2, 50 mg of E2, 250 mg of 2dDR and 500 mg of 2dDR were then added to each solution per 1 g of PHBV. The mixtures were magnetically stirred overnight.
Scaffolds were cut into pieces so to fit into an 6-well plate, weighed and submerged in 4 ml of PBS. The E2 and 2dDR concentrations released from each group (25 mg E2, 50 mg E2, 250 mg 2dDR, 500 mg 2dDR) were measured […] using a UV-VIS spectrophotometer (Thermo Fischer Evolution 220, Massachusetts, USA) at 238 nm for 2dDR and 220 nm for E2. Absorbance values were converted into concentrations using a standard curve of known concentrations of E2 and 2dDR.

[3] = 17 days, loaded CS/collagen scaffold

Compound: O=CC[C@H](O)[C@H](O)CO [2-deoxy-D-ribose]
- epithelium and hair follicles (Goldner's trichrome) [1, 3]: epithelium and hair follicles already formed
- wound healing by histology (H&E) [1, 3]: essentially complete
- vascularisation (staining for CD34 positive cells) ([1]; added to chitosan/collagen hydrogel): increase in vascularisation
- attachment of scaffold to the surrounding tissues ([1]; day 3, loaded CS/collagen scaffold): very much attached to the surrounding tissues
- wound area ([1]; day 9, loaded CS/collagen hydrogel): around 50%
- wound area healed ([1]; day 11, loaded CS/collagen hydrogel): more than 50%
- wound closure ([1]; day 17, loaded CS/collagen hydrogel): completely closed
- wound healing ([1]; loaded in CS/collagen hydrogel): accelerated
- release from the scaffolds, of the amount present in the polymer solution ([2]; 250 mg 2dDR per 1 g PHBV scaffold): 81.3%
- release from the scaffolds, of the amount present in the polymer solution ([2]; 500 mg 2dDR per 1 g PHBV scaffold): 86.5%
